Test results: the supplement of paper PMC4932681

Columns and labels:
T-47D [1] = assay: drug sensitivity score (DSS) (DSS (dimensionless)); higher = more sensitive; extreme values may be limits of the assay; conditions: 72 h
Description: (§1)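 FIMM FO2B library drugs were tested at 5 concentrations (10,000-fold range) for 72 h, with CellTiter-Glo viability normalised to DMSO and benzethonium chloride controls. The Drug Sensitivity Score (DSS) is computed from the fitted logistic dose-response curve (area-based; 0 = inactive). Resistant lines and the 'in 1µM tamoxifen' arms were tested in 1 µM 4-OH-tamoxifen.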

ZR-75-1 Tam2 [2] = assay: as above; conditions: 4-OH-tamoxifen in medium 1 µM; 72 h
Description: as §1

ZR-75-1 [3] = assay: as above; conditions: 72 h
Description: as §1

T-47D Tam1 [4] = assay: as above; conditions: 4-OH-tamoxifen in medium 1 µM; 72 h
Description: as §1

MCF-7 Tam1 [5] = assay: as above; conditions: 4-OH-tamoxifen in medium 1 µM; 72 h
Description: as §1

T-47D Tam2 = assay: as above; conditions: 4-OH-tamoxifen in medium 1 µM; 72 h
Description: as §1

BT-474 [6] = assay: as above; conditions: 72 h
Description: as §1

BT-474 Tam2 [7] = assay: as above; conditions: 4-OH-tamoxifen in medium 1 µM; 72 h
Description: as §1

ZR-75-1 Tam1 [8] = assay: as above; conditions: 4-OH-tamoxifen in medium 1 µM; 72 h
Description: as §1

MCF-7 [9] = assay: as above; conditions: 72 h
Description: as §1

BT-474 Tam1 [10] = assay: as above; conditions: 4-OH-tamoxifen in medium 1 µM; 72 h
Description: as §1

T-47D [11] = assay: relative IC50 (midpoint of fitted logistic curve, plateau may be below 50% inhibition; CellTiter-Glo viability); higher = less potent; conditions: 72 h
Description: (§2)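 FIMM FO2B library drugs were plated at 5 concentrations spanning a 10,000-fold range in 384-well plates. Cells were incubated for 72 h at 37 °C and viability was read by CellTiter-Glo, normalised to DMSO (0% inhibition) and 100 µM benzethonium chloride (100% inhibition). IC50 values come from logistic dose-response fits (Breeze pipeline). Tamoxifen-resistant lines and the 'in 1µM tamoxifen' parental arms were tested in medium with 1 µM 4-OH-tamoxifen.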

ZR-75-1 Tam2 [12] = assay: as above; conditions: 4-OH-tamoxifen in medium 1 µM; 72 h
Description: as §2

ZR-75-1 [13] = assay: as above; conditions: 72 h
Description: as §2

T-47D Tam1 [14] = assay: as above; conditions: 4-OH-tamoxifen in medium 1 µM; 72 h
Description: as §2

MCF-7 Tam1 [15] = assay: as above; conditions: 4-OH-tamoxifen in medium 1 µM; 72 h
Description: as §2

BT-474 [16] = assay: as above; conditions: 72 h
Description: as §2

BT-474 Tam2 [17] = assay: as above; conditions: 4-OH-tamoxifen in medium 1 µM; 72 h
Description: as §2

ZR-75-1 Tam1 [18] = assay: as above; conditions: 4-OH-tamoxifen in medium 1 µM; 72 h
Description: as §2

BT-474 Tam1 [19] = assay: as above; conditions: 4-OH-tamoxifen in medium 1 µM; 72 h
Description: as §2

MCF-7 [20] = assay: as above; conditions: 72 h
Description: as §2

Structure (SMILES)	relative IC50 (T-47D [11]; 4-OH-tamoxifen in medium 0 µM)	relative IC50 (T-47D [11]; 4-OH-tamoxifen in medium 1 µM)	relative IC50 (T-47D Tam1 [14])	relative IC50 (MCF-7 Tam1 [15])	relative IC50 (BT-474 [16]; 4-OH-tamoxifen in medium 0 µM)	relative IC50 (BT-474 [16]; 4-OH-tamoxifen in medium 1 µM)	relative IC50 (BT-474 Tam2 [17])	relative IC50 (BT-474 Tam1 [19])	relative IC50 (MCF-7 [20]; 4-OH-tamoxifen in medium 1 µM)	relative IC50 (MCF-7 [20]; 4-OH-tamoxifen in medium 0 µM)	drug sensitivity score (T-47D [1]; 4-OH-tamoxifen in medium 0 µM)	drug sensitivity score (T-47D [1]; 4-OH-tamoxifen in medium 1 µM)	drug sensitivity score (ZR-75-1 Tam2 [2])	drug sensitivity score (ZR-75-1 [3]; 4-OH-tamoxifen in medium 0 µM)	drug sensitivity score (ZR-75-1 [3]; 4-OH-tamoxifen in medium 1 µM)	drug sensitivity score (T-47D Tam1 [4])	drug sensitivity score (MCF-7 Tam1 [5])	drug sensitivity score (T-47D Tam2)	drug sensitivity score (BT-474 [6]; 4-OH-tamoxifen in medium 0 µM)	drug sensitivity score (BT-474 [6]; 4-OH-tamoxifen in medium 1 µM)	drug sensitivity score (BT-474 Tam2 [7])	drug sensitivity score (ZR-75-1 Tam1 [8])	drug sensitivity score (MCF-7 [9]; 4-OH-tamoxifen in medium 0 µM)	drug sensitivity score (MCF-7 [9]; 4-OH-tamoxifen in medium 1 µM)	drug sensitivity score (BT-474 Tam1 [10])	relative IC50 (ZR-75-1 Tam2 [12])	relative IC50 (ZR-75-1 [13]; 4-OH-tamoxifen in medium 0 µM)	relative IC50 (ZR-75-1 Tam1 [18])	relative IC50 (ZR-75-1 [13]; 4-OH-tamoxifen in medium 1 µM)
NC(=O)c1cccc2cn(-c3ccc([C@@H]4CCCNC4)cc3)nc12 [MK-4827]			> 10000 nM	> 10 µM	> 10000 nM	> 10000 nM		3060 nM			0.34	1.04	0	0.0039	0	0	0	0.764	0	0	0.615	0	0.385	1.11	2.21	> 10000 nM		> 10000 nM	> 10000 nM
CC1(C)CCC(c2ccc(Cl)cc2)=C(CN2CCN(c3ccc(C(=O)NS(=O)(=O)c4ccc(N[C@H](CCN5CCOCC5)CSc5ccccc5)c(S(=O)(=O)C(F)(F)F)c4)cc3)CC2)C1 [Navitoclax (ABT-263)]	> 10 µM	> 10 µM	326 nM	> 10 µM		1610 nM	723 nM	1150 nM			0	0	0	0	0	14.1	0	1.65	0	4.26	3.9	0	1.6	0.949	2.79	> 10000 nM	> 10000 nM	> 10000 nM	> 10000 nM
COC(=O)c1ccc2c(c1)NC(=O)/C2=C(\Nc1ccc(N(C)C(=O)CN2CCN(C)CC2)cc1)c1ccccc1 [Nintedanib (BIBF 1120)]	> 10 µM	> 10 µM	> 10000 nM	> 10 µM	> 10000 nM		> 10000 nM	155 nM	> 10000 nM		0	0	0	0	0	0	0	0.209	0	3.83	0	0	0.34	0	7.37	> 10000 nM	> 10000 nM		> 10000 nM
CO[C@H]1C[C@@H]2CC[C@@H](C)[C@@](O)(O2)C(=O)C(=O)N2CCCC[C@H]2C(=O)O[C@H]([C@H](C)C[C@@H]2CC[C@@H](O)[C@H](OC)C2)CC(=O)[C@H](C)/C=C(\C)[C@@H](O)[C@@H](OC)C(=O)[C@H](C)C[C@H](C)/C=C/C=C/C=C/1C [Sirolimus (Rapamycin)]	0.00107 µM		5.24 nM	> 1 µM				> 1000 nM	4.86 nM	4.79 nM	10.6	0.392	12.4	12.7	9.39	8.59	0	3.53	5.15	1.96	1.85	8.75	12.7	11.1	0	2 nM	1.84 nM	4.48 nM	2.35 nM

Further lines, with some results ahead:

relative IC50 (T-47D [11]; 4-OH-tamoxifen in medium 0 µM)	relative IC50 (T-47D [11]; 4-OH-tamoxifen in medium 1 µM)	relative IC50 (T-47D Tam1 [14])	relative IC50 (MCF-7 Tam1 [15])	relative IC50 (BT-474 [16]; 4-OH-tamoxifen in medium 0 µM)	relative IC50 (BT-474 [16]; 4-OH-tamoxifen in medium 1 µM)	relative IC50 (BT-474 Tam2 [17])	relative IC50 (BT-474 Tam1 [19])	relative IC50 (MCF-7 [20]; 4-OH-tamoxifen in medium 1 µM)	relative IC50 (MCF-7 [20]; 4-OH-tamoxifen in medium 0 µM)	Structure (SMILES)	drug sensitivity score (T-47D [1]; 4-OH-tamoxifen in medium 0 µM)	drug sensitivity score (T-47D [1]; 4-OH-tamoxifen in medium 1 µM)	drug sensitivity score (ZR-75-1 Tam2 [2])	drug sensitivity score (ZR-75-1 [3]; 4-OH-tamoxifen in medium 0 µM)	drug sensitivity score (ZR-75-1 [3]; 4-OH-tamoxifen in medium 1 µM)	drug sensitivity score (T-47D Tam1 [4])	drug sensitivity score (MCF-7 Tam1 [5])	drug sensitivity score (T-47D Tam2)	drug sensitivity score (BT-474 [6]; 4-OH-tamoxifen in medium 0 µM)	drug sensitivity score (BT-474 [6]; 4-OH-tamoxifen in medium 1 µM)	drug sensitivity score (BT-474 Tam2 [7])	drug sensitivity score (ZR-75-1 Tam1 [8])	drug sensitivity score (MCF-7 [9]; 4-OH-tamoxifen in medium 0 µM)	drug sensitivity score (MCF-7 [9]; 4-OH-tamoxifen in medium 1 µM)	drug sensitivity score (BT-474 Tam1 [10])	relative IC50 (ZR-75-1 Tam2 [12])	relative IC50 (ZR-75-1 [13]; 4-OH-tamoxifen in medium 0 µM)	relative IC50 (ZR-75-1 Tam1 [18])	relative IC50 (ZR-75-1 [13]; 4-OH-tamoxifen in medium 1 µM)
1.24 µM	> 10 µM	1730 nM	> 10 µM	> 10000 nM	> 10000 nM	> 10000 nM	> 10000 nM			CCc1c2c(nc3ccc(OC(=O)N4CCC(N5CCCCC5)CC4)cc13)-c1cc3c(c(=O)n1C2)COC(=O)[C@]3(O)CC [Irinotecan]	4.39	0	3.94	3.43	1.34	2.72	0	0.581	0	0	0	3.21	1.56	1.5	0	1590 nM	1710 nM	1390 nM	
	> 10 µM	> 10000 nM	> 10 µM	> 10000 nM	> 10000 nM	> 10000 nM			> 10000 nM	O=C(c1cc(Cc2n[nH]c(=O)c3ccccc23)ccc1F)N1CCN(C(=O)C2CC2)CC1 [Olaparib]	0	0	0	0	0	0	0	0.0505	0	0	0	0	0	0.285	0.0009	> 10000 nM	> 10000 nM	> 10000 nM	> 10000 nM
	> 10 µM	504 nM	> 10 µM	2150 nM	1290 nM	1350 nM	1170 nM			CN1CCN(CCOc2cc(OC3CCOCC3)c3c(Nc4c(Cl)ccc5c4OCO5)ncnc3c2)CC1 [Saracatinib]	1.32	0	0	0	0	5.37	0	3.11	3.72	9.8	10.1	0	2.15	0.814	10.8	> 10000 nM	> 10000 nM	> 10000 nM	> 10000 nM
0.0779 µM	> 1 µM	100 nM	> 1 µM	> 1000 nM	> 1000 nM	> 1000 nM	> 1000 nM			CC[C@@]1(O)C(=O)OCc2c1cc1n(c2=O)Cc2cc3c(CN(C)C)c(O)ccc3nc2-1 [Topotecan]	7.46	0	4.55	5.48	3.54	5.31	0	1.16	0	0	0	3.45	0.567	2.53	0	136 nM	95.2 nM	156 nM	130 nM
